These results are taken from patent publication US20220194938A1, “NOVEL COMPOUNDS AND PHARMACEUTICAL COMPOSITIONS THEREOF FOR THE TREATMENT OF INFLAMMATORY DISORDERS” (GALAPAGOS NV, priority 2019, published 2022).

The experiment relates to Collagen Induced Arthritis (CIA). Briefly: Mouse collagen induced arthritis (CIA) model. The experiment is classed as in vivo. The settings on record: mouse CIA, 3, 10 and 30 mg/kg b.i.d., versus disease vehicle group. How it is done: 5.1. CIA Model 5.1.1. Materials Completed Freund's adjuvant (CFA) and incomplete Freund's adjuvant (IFA) were purchased from Difco. Bovine collagen type II (CII), lipopolysaccharide (LPS), and Enbrel was obtained from Chondrex (Isle d'Abeau, France); Sigma (P4252, L'Isle d'Abeau, France), […] (25 mg injectable syringe, France) Acros Organics (Palo Alto, Calif.), respectively. All other reagents used were of reagent grade and all solvents were of analytical grade. 5.1.2. Animals DBA1/J mice (male, 7-8 weeks old) were obtained from Charles River Laboratories (France). Mice were kept on a 12 h light/dark cycle (07 h00-19 h00). Temperature was maintained at 22° C., and food and water were provided ad libitum. 5.1.3. Collagen Induced Arthritis (CIA) One day before the experiment, CII solution (2 mg/mL) was prepared with 0.05 M acetic acid and stored at 4° C. Just before the immunization, equal volumes of adjuvant (IFA) and CII were mixed by a homogenizer in a pre-cooled glass bottle in an ice water bath. Extra adjuvant and prolonged homogenization may be required if an emulsion was not formed. […] Body weight and clinical score, were recorded twice a week. […] Clinical Assessment of Arthritis Arthritis is scored according to the method of (Khachigian 2006; Lin et al. 2007; Nishida et al. 2004). […] Results For each readout, mean and sem were calculated. […]

The structures appear in SMILES notation.

Turning to `CNC(=O)c1cc2nc(CCC(C)(C)O)cn2cc1NC(=O)c1cccc(C(F)(F)F)n1` [Compound 2, 2-(3-hydroxy-3-methyl-butyl)-N-methyl-6-[[6-(trifluoromethyl)pyridine-2-carbonyl]amino]imidazo[1,2-a]pyridine-7-carboxamide], the “effect on bone erosion Larsen Score” value was “statistically significant effect”.
